Source: patent US12036224B2, “Formulations, methods, kits, and dosage forms for treating atopic dermatitis and for improved stability of an active pharmaceutical ingredient” (Libertas Bio, Inc., priority 2017, dated 2024)
Converted amounts (≈) assume the structure as drawn. “Also recorded” adds a separate entry of the source.

Tests used:
[1] = system: ibrutinib-resistant cell lines; experiment: Pre-clinical proliferation in ibrutinib-resistant cell lines; type: cell-based
Source text: (§1) A formulation of the disclosure comprising 2-(1-(4-((4-(4-hydroxypiperidin-1-yl)phenyl)amino)-5-oxo-5,6-dihydropyrimido[4,5-d]pyridazin-2-yl)piperidin-4-yl)acetonitrile comprises a potent inhibitor of Spleen Tyrosine Kinase (SYK) and Janus Kinases (JAK).

[2] = HCl pH dependent solubility profile study; type: physicochemical; settings: thermodynamic from solid
Source text: (§2) Analytical studies for 2-(1-(4-((4-(4-hydroxypiperidin-1-yl)phenyl)amino)-5-oxo-5,6-dihydropyrimido[4,5-d]pyridazin-2-yl)piperidin-4-yl)acetonitrile are provided below in Tables 1-3: Table 1 provides the results of an HCl pH dependent solubility profile study, Table 2 provides the results of an HCl solubility profile in organic solvents, and Table 3 provides the results of an HCl stress study.

[3] = HCl stress study; type: physicochemical
Source text: as §2

[4] = system: rodent xenograft models of NHL and other hematologic malignancies; experiment: Rodent xenograft models of NHL and other hematologic malignancies; type: in vivo
Source text: as §1

[5] = system: lesional skin of subjects with atopic dermatitis; experiment: Phase 1b study in atopic dermatitis: skin biopsy biomarkers; type: in vivo, human
Source text: Assessment of Pharmacodynamics/Biomarker Parameters: • 1. Change from baseline in inflammatory markers in serum (including immune markers and CRP) • 2. Change from baseline in molecular skin biomarkers (inflammatory and barrier) • 3. Change from baseline in cellular markers (including reduction in inflammatory cells) • 4. Change from baseline in epidermal thickness and barrier markers in skin biopsies. Assessments of Efficacy Investigator's Global Assessment
For each subject, a maximum of four skin biopsies were collected during this study. Two punch biopsy samples (one from lesional skin and one from non-lesional skin) were collected at Day 1 and one punch biopsy was collected from the same lesional skin (outside the scar of the previous biopsies) at Day 15 (optional for subjects) and Day 29.
A panel of biological markers were assessed to determine the effect of Compound 1 on the disease process. These may include, but are not limited to: • Serum cytokines and inflammatory markers • Molecular skin biomarkers (inflammatory and barrier) • Circulating and tissue resident cellular phenotyping • Epidermal thickness and barrier markers from skin biopsies • Other biomarkers related autoimmune or inflammatory diseases Results: […]

[6] = system: JAK/STAT pathway in T cells (primary); experiment: Inhibition of JAK/STAT pathway in T cells stimulated with various cytokines; type: cell-based; settings: T cells (primary) stimulated by various cytokines
Description: FIG. 7A is a graph of the % of subjects to achieve EASI50 over time (Day 1 to Day 29) for a placebo and Compound 1 in the doses of 20 mg, 40 mg and 80 mg. FIG. 7B is a graph of the % of subjects to achieve EASI75 over time (Day 1 to Day 29) for a placebo and Compound 1 in the doses of 20 mg, 40 mg and 80 mg. […] FIG. 8A is a graph of the % CFB (percentage change from baseline) for EASI (decrease) for the placebo and Compound 1 in the doses of 20 mg, 40 mg and 80 mg. FIG. 8B is a graph of the % CFB for BSA (body surface area) (decrease) for the placebo and Compound 1 in the doses of 20 mg, 40 mg and 80 mg. FIG. 8C is a graph of the % CFB for IGA 0-1 (Investigator's Global Assessment) for the placebo and Compound 1 in the doses of 20 mg, 40 mg and 80 mg. FIG. 9 is a graph of day 15 plasma concentration for Compound 1 in the doses of 20 mg, 40 mg and 80 mg. […] In FIG. 10, the IC50 values were determined in biochemical kinase assays using purified partial or full length enzymes. FIG. 11 is a chart showing inhibition of Compound 1 in JAK/STAT pathway in T cells stimulated with various cytokines.

[7] = HCl solubility profile in organic solvents; type: physicochemical; settings: organic solvent or mixture
Source text: as §2

[8] = Phase 1b study in atopic dermatitis: pharmacokinetics; type: in vivo, human
Description: Upon signing the informed consent, the each subject underwent screening assessments from Day −30 to Day −1 prior to study drug administration. On Day 1 (baseline), eligible subjects were randomized, subjected to the Day 1/baseline assessments and received Compound 1 at 20, 40 or 80 mg or placebo, dependent on cohort and randomization schedule. At this visit, PK/PD samples were collected at predose and up to 8 hours (or up to 12 hours at selected sites). Subjects were monitored in clinic for 2 hours following the first study drug administration. Subjects returned to the clinic on Day 2 for PK and PD samples (24 hours post dose).
Pre-dose PK and PD samples were collected on Days 8 and 29 (last day of treatment). On Day 15, PK/PD samples were also collected at pre-dose and up to 8 hours post-dose and subjects returned on Day 16 for PK and PD samples (24 hours post dose). Subjects came in for additional safety assessments on Days 8, 22 and 29, as well as at the end of the follow up period (Day 43). Disease assessments were conducted on Days 1, Day 15 and Day 29.
Assessment of PK variables: The following PK parameters for Compound 1 were derived from the concentration-time data of Compound 1 after the first and Day 15 dose administration in the fasted state, as data allowed: Cmax, tmax, AUC0-∞, AUC0-t, AUC0-24, λz, t1/2, CL/F and Vd/F

[9] = system: subjects with moderate-to severe atopic dermatitis; experiment: Phase 1b study in atopic dermatitis: safety and tolerability; type: in vivo, human
Description: The study conducted was a randomized, double-blind, placebo-controlled, multicenter, sequential dose escalation study in subjects with moderate-to severe atopic dermatitis. The study included a screening period (up to 30 days) and a treatment period for 4 weeks with a 14 day follow up period that concluded with an end-of-study visit. Three sequential cohorts of 20, 40 and 80 mg QD were evaluated. At each dose level a total of 12 subjects were enrolled with 9 subjects receiving Compound 1, and 3 subjects receiving matching placebos.
Assessment of safety: Safety was assessed by AEs, vital signs, 12-lead ECG, physical examination, and laboratory safety assessments.

[10] = human, plasma, oral, day 15, 20, 40 and 80 mg

In the case of `N#CCC1CCN(c2nc(Nc3ccc(N4CCC(O)CC4)cc3)c3c(=O)[nH]ncc3n2)CC1` [Compound 1, 2-(1-(4-((4-(4-hydroxypiperidin-1-yl)phenyl)amino)-5-oxo-5,6-dihydropyrimido[4,5-d]pyridazin-2-yl)piperidin-4-yl)acetonitrile], the proliferation [1] is reported as “decreases proliferation”, the solubility ([2]; aqueous buffer, pH 4.5 Acetate Buffer, initial pH 4.50, end pH 4.56) is reported as 2.9 µg/mL (≈ 6.3 µM) and the solubility ([2]; aqueous buffer, pH 5.5 Acetate Buffer, initial pH 5.52, end pH 5.12) is reported as 1 µg/mL (≈ 2.17 µM). The solubility ([2]; aqueous buffer, pH 6.8 Phosphate Buffer, initial pH 6.80, end pH 6.86) was 2.7 µg/mL (≈ 5.86 µM), the solubility ([2]; aqueous buffer, pH 7.5 Phosphate Buffer, initial pH 7.55, end pH 6.96) was 0.7 µg/mL (≈ 1.52 µM) and the solubility ([2]; simulated gastric fluid, 0.1N HCl, end pH 1.23) was 10800 µg/mL (≈ 23500 µM). The solubility ([2]; Water, end pH 2.62) was 941 µg/mL (≈ 2040 µM), the “% API based on Peak Area %” value ([3]; 1N HCl, rt, 24 hr) was 100.00% and the “% API based on Peak Area %” value ([3]; 1N NaOH, rt, 24 hr) was 99.54%. For the same compound, the “% API based on Peak Area %” value ([3]; 3% H2O2, rt, 30 hr) was 83.00%, the “% API based on Peak Area %” value ([3]; 80° C., 24 hr) was 99.93% and the “% API based on Peak Area %” value ([3]; UV, 23 hr) was 99.80%. The tumor growth [4] was “suppresses tumor growth”, the “T cell (CD3+) infiltration into all layers of the skin” value ([5]; 40 and 80 mg, Day 29) was “reduced” and the “Myeloid DC (CD11c+) infiltration into all layers of the skin” value ([5]; 40 and 80 mg, as early as Day 15) was “reduced”. For the same compound, the “cutaneous biomarkers (cellular infiltrates, immune and hyperplasia markers)” value ([5]; particularly in the mid and high dose) was “improvements in epidermal hyperplasia and cellular infiltrates observed as early as Day 15; also recorded: down regulates inflammatory pathways; also recorded: reversal of cutaneous biomarkers of inflammation”, the total skin thickness ([5]; skin biopsies, 20, 40 and 80 mg) was “Reductions in total skin thickness can be observed as early as Day 15” and the “inhibition of JAK/STAT pathway” value [6] was “strong inhibition”. For the same compound, the solubility ([7]; EtOH) was 5000 µg/mL (≈ 10800 µM), the solubility ([7]; IPA) was 462 µg/mL (≈ 1000 µM) and the solubility ([7]; MeOH) was 4440 µg/mL (≈ 9630 µM). The “Dose dependence of exposure (Cmax, AUC), in words” value ([8]; 20, 40 and 80 mg once daily) was “dose-dependent Cmax and AUC; also recorded: dose-dependent exposure”, the “Inter- and intra-individual variability of PK, in words” value ([8]; 20, 40 and 80 mg once daily) was “low inter- and intra-individual variability; also recorded: minimum individual variability and accumulation” and the Tmax [8, 10] was 2 to 4 h. For the same compound, the half-life [8, 10] was 10 to 14 h, the “changes in chemistry lab parameters” value ([9]; in vivo) was “No clinically significant changes in chemistry lab parameters except asymptomatic, mild-to-moderate transient elevations of CPK” and the “changes in hematologic lab parameters including platelets, neutrophils and lymphocytes” value ([9]; in vivo) was “No clinically significant changes”. The “changes in lipid profile” value ([9]; in vivo) was “No changes in lipid profile”, the “serious infections or thromboembolic events” value ([9]; in vivo) was “No serious infections or thromboembolic events occurred” and the tolerability ([9]; patients with moderate to severe atopic dermatitis, 20, 40, 80 mg once daily) was “well tolerated; also recorded: very well tolerated at all dose levels”. For the same compound, the “most common adverse events” value ([9]; predominantly Day 1) was “transient, mild headache and nausea”.
